From the supplement of paper PMC10307832

What was measured:
Test in all cases: relative viability (nuclei count vs DMSO), 5 days (fraction); higher = more cells survive
Shikonin + Foretinib = compound: CC(C)=CC[C@@H](O)C1=CC(=O)c2c(O)ccc(O)c2C1=O [Shikonin] + COc1cc2c(Oc3ccc(NC(=O)C4(C(=O)Nc5ccc(F)cc5)CC4)cc3F)ccnc2cc1OCCCN1CCOCC1 [Foretinib] (partner 0.25 µM)
Outline: (§1)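 Lung cancer cell lines, seeded in 1536-well plates, were treated the following day by pin tool with a single drug or with five library-drug doses (not always all listed) in √10 steps on top of a fixed anchor-drug dose. Cells were fixed and nuclei stained in one step after 5 days, and nuclei were counted. Relative viability is the nuclei count for treated wells divided by that for vehicle wells, reported as medians of duplicate plates.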

Shikonin + Vorinostat = compound: CC(C)=CC[C@@H](O)C1=CC(=O)c2c(O)ccc(O)c2C1=O [Shikonin] + O=C(CCCCCCC(=O)Nc1ccccc1)NO [Vorinostat] (partner 1 µM)
Outline: as §1

[1] = compound: CC(C)N(CCCNC(=O)Nc1ccc(C(C)(C)C)cc1)C[C@H]1O[C@@H](n2ccc3c(N)ncnc32)[C@H](O)[C@@H]1O + CC(=O)Nc1cccc(-n2c(=O)n(C3CC3)c(=O)c3c(Nc4ccc(I)cc4F)n(C)c(=O)c(C)c32)c1 [Trametinib] (partner 0.02 µM)
Outline: as §1

[2] = compound: CC(C)N(CCCNC(=O)Nc1ccc(C(C)(C)C)cc1)C[C@H]1O[C@@H](n2ccc3c(N)ncnc32)[C@H](O)[C@@H]1O + CC1(C)CCC(c2ccc(Cl)cc2)=C(CN2CCN(c3ccc(C(=O)NS(=O)(=O)c4ccc(N[C@H](CCN5CCOCC5)CSc5ccccc5)c(S(=O)(=O)C(F)(F)F)c4)cc3)CC2)C1 [Navitoclax] (partner 0.5 µM)
Outline: as §1

Cell Line	relative viability (Shikonin + Foretinib; first compound 0.01 µM)	relative viability (Shikonin + Foretinib; first compound 0.1 µM)	relative viability (Shikonin + Foretinib; first compound 0.3162 µM)	relative viability (Shikonin + Foretinib; first compound 1 µM)	relative viability (Shikonin + Vorinostat; first compound 0.01 µM)	relative viability (Shikonin + Vorinostat; first compound 0.1 µM)	relative viability (Shikonin + Vorinostat; first compound 0.3162 µM)	relative viability (Shikonin + Vorinostat; first compound 1 µM)	relative viability ([1]; first compound 0.08 µM)	relative viability ([1]; first compound 0.253 µM)	relative viability ([1]; first compound 0.8 µM)	relative viability ([1]; first compound 2.53 µM)	relative viability ([1]; first compound 8 µM)	relative viability ([2]; first compound 0.08 µM)	relative viability ([2]; first compound 0.253 µM)	relative viability ([2]; first compound 0.8 µM)	relative viability ([2]; first compound 2.53 µM)	relative viability ([2]; first compound 8 µM)
NCI-H322M	0.996	1.37	1.06	0.99	0.672	0.911	0.953	0.978	0.5	0.533	0.544	0.475	0.517	1.16	1.09	1.19	1.2	1.16
NCI-H441	0.941	1.17	0.849	1.04	0.875	0.832	0.783	0.695	0.407	0.432	–	0.498	0.474	–	0.66	0.682	0.698	0.63
NCI-H460	1.09	0.797	1.12	0.994	0.919	0.946	0.959	0.828	0.103	0.0737	0.0752	0.127	0.129	1.01	1.16	1.12	1.27	0.9
NCI-H520	0.801	0.759	0.8	0.696	0.8	0.718	0.717	0.681	0.681	0.513	0.599	0.667	0.695	1.04	1.15	1.1	1.05	0.929
NCI-H596	0.868	0.824	0.777	0.941	0.45	0.616	0.612	0.774	0.858	0.759	0.842	0.753	0.765	0.98	0.877	0.909	1.01	0.992
NCI-H647	1.29	1.46	1.51	1.31	0.54	0.624	0.72	0.513	0.435	0.368	0.478	0.467	0.432	0.894	–	1.07	1.06	1.05
NCI-H727	0.864	0.837	0.905	0.883	1.32	1.44	1.27	1.14	0.36	0.424	0.416	0.349	0.396	0.416	0.389	0.499	0.534	0.506
NCI-H838	1.08	1.16	1.2	0.999	0.704	0.753	0.775	0.582	0.501	0.328	0.464	0.559	0.529	1.12	1.1	1.2	1.15	1.14
NCI-H1355	1.03	1.16	1.04	1.04	0.65	0.623	0.627	0.604	0.419	0.416	0.388	0.458	0.38	0.854	0.909	–	0.911	0.935
NCI-H1395	0.955	0.949	0.948	0.939	0.675	0.705	0.695	0.938	0.956	0.986	0.979	1.01	1.04	1.17	1.1	–	1.23	1.53
NCI-H1437	1.37	1.26	1.26	1.27	0.886	0.841	0.856	0.736	0.472	0.521	0.496	0.428	0.45	1	1.11	1.07	1.14	1.04
NCI-H1650	1.18	1.07	0.985	1.32	0.41	0.499	0.485	0.483	0.686	0.521	0.219	0.645	0.441	1.11	1.17	–	1.14	1
NCI-H1651	0.883	0.758	0.93	0.714	0.553	0.617	0.57	0.636	0.84	0.85	0.795	0.859	0.894	1.01	1.04	1.09	1.05	0.995
NCI-H1666	0.932	1.02	1.01	0.961	1.07	0.96	0.966	1.12	0.772	0.814	0.804	0.86	0.764	0.946	0.912	1.03	0.934	0.953
NCI-H1734	0.762	0.681	0.869	0.915	0.732	0.818	0.765	0.842	0.587	0.653	0.69	0.703	0.561	0.784	0.86	0.71	0.856	0.752
NCI-H1755	0.932	1.02	0.967	0.956	0.637	0.807	0.888	0.665	0.758	0.736	0.719	0.733	0.771	0.986	0.99	0.923	0.958	0.914
NCI-H1793	0.783	0.737	0.792	0.59	0.752	0.974	0.68	0.973	0.394	–	0.367	0.446	0.422	0.487	–	0.393	0.505	0.357
NCI-H1915	1.13	1.12	1.15	1.2	0.511	0.612	0.576	0.479	0.3	0.306	0.302	0.311	0.292	0.782	0.778	0.781	0.768	0.697
